Literature values as cited in patent US20240277629A1, “USE OF THYROID HORMONE T4 IN A HIGH VERSATILITY TREATMENT IN PATIENTS TAKING PROTON PUMP INHIBITORS” (ALTERGON S.A., priority 2021, published 2024).

Conditions: patients under therapy with PPIs (Centanni et al. 2006)

Question: Which “Increase of daily dose of T4 needed to obtain the desired blood levels of thyroid hormone” value does the source give for `N[C@@H](Cc1cc(I)c(Oc2cc(I)c(O)c(I)c2)c(I)c1)C(=O)O` [T4, levothyroxine] here?
Answer: 37%
